We go through 2 compounds from patent publication US20250382588A1, “CHIMERIC AAV AND USES THEREOF” (priority 2023, published 2025).

“Also recorded” adds a separate entry of the source.

Data set [1] relates to parkinsonian macaque model (MPP+). Briefly: Parkinsonian symptoms in MPP+ macaques (PD score, locomotion, EMG tremor, motor skill, dyskinesia score). Conditions: for dyskinesia-like behaviors (dyskinesia score): long-term treatment.
Procedure: Parkinsonian conditions in macaque monkeys were established by unilaterally injecting 1-Methyl-4-phenylpyridinium (MPP+) into the SNc (FIG. 14). […] Drug injections were performed in five sites covering the whole SNc. A total volume of 10 ul MPP+ was injected into SNc at a speed of 50 nL/min. Monkeys were continuously monitored by veterinarians after lesion.
Two experienced observers blindly evaluated parkinsonian symptoms of the monkeys three days per week throughout the observation periods. Parkinsonian symptoms were quantified according to the well-established Kurlan scale (Part I. Parkinsonian features), a widely used scale to quantify PD symptoms in old world monkeys. A score of zero indicates a normal monkey, whereas a maximum score of 29 indicates an animal with severe PD symptoms. For separate behavioral categories, scoring of the upper limb and the lower limb were added together. Additionally, action or intention tremors and resting tremors were added together.
Two experienced observers blindly evaluated dyskinesia symptoms of the monkeys three days per week throughout the observation periods. Dyskinesia score criteria were: 0: Absent. 1: Mild, fleeting, present <30% of the observation period. 2: Moderate, not interfering with normal activity, present >30% of the observation period. 3: Marked, at times interfering with normal activity; present <70% of the observation period.4: Severe, continuous, replacing normal activity, present >70% of the observation.
For parkinsonian monkeys, DCZ (Deschloroclozapine, 0.3 mg/kg, MCE) was administered via intramuscular injection. After DCZ was successfully infused, monkeys were immediately transferred to the observation cage for video recording. […] For long-term DCZ treatment, parkinsonian monkeys were given DCZ at a dose of 0.3 mg/kg every other day via intramuscular injection. […] One month of washout was allowed before administration of DCZ for a 2 months treatment.
A grasp-to-eat/hand-to-mouth movement test was conducted as an indication of motor skills in monkeys. Monkeys were first trained to sit in a primate chair with the healthy hand restricted. Monkeys were then trained to grasp food (a piece of apple, ˜1 cm3) using the MPP+-affected hand from the experimenter. The task contained three blocks, with 20-minute intervals between different blocks. Each block included ten continuous trials. Trials were defined as successful when monkeys were able to bring food to their mouth within a minute.
During video recording, a top (x/y) and a side (x/z) camera were used to record the observation cage. The VigiePrimate system (Viewpoint) was used to analyze the subject's activity and extract movement data from the recorded videos. The tracking data were synchronously sampled at 25 Hz for both top view and side view, and then combined to generate one dataset representing the 3D space. The tracking data were normalized to 0-100 cm for all x-, y-, and z-axes, of which x represents right to left, y represents front to back, and z represents bottom to top.
Customized surface EMG electrodes were used for EMG recordings.
A short description of data set [2]: Motor-related behaviors in naïve macaques after DCZ. It is filed as in vivo. The settings on record: DCZ 0.3 mg/kg. On the procedure:
The locomotion tests for monkeys were conducted in a custom-made observation cage (100 cm×100 cm×100 cm). The top and front of the cage were made of toughened glass in order to gain a clear view for behavioral recording. Monkeys were habituated to the observation cage by placing them inside for 30 minutes on three separate days.

The conditions of data set [3]: in vivo.
Data set [4] deals with T1, rM3Ds (Rattus norvegicus, UniProt P08483, A177S/A238G/A489L/DEL261-437/DEL441-478/E258S/I253V/I483M/INS256[…]/K178L/K182A/K255R/K484R/K486H/L173F/L482A/M480V/R171S/R176Q/R179M/S481M/T174R/T181R/T257A/Y148C).
T1 sequence (P08483 with tags, fused parts or gaps Y148C/R171S/L173F/T174R/R176Q/A177S/K178L/R179M/T181R/K182A/A238G/I253V/K255R/INS256[…]/T257A/E258S/DEL261-437/DEL441-478/M480V/S481M/L482A/I483M/K484R/K486H/A489L): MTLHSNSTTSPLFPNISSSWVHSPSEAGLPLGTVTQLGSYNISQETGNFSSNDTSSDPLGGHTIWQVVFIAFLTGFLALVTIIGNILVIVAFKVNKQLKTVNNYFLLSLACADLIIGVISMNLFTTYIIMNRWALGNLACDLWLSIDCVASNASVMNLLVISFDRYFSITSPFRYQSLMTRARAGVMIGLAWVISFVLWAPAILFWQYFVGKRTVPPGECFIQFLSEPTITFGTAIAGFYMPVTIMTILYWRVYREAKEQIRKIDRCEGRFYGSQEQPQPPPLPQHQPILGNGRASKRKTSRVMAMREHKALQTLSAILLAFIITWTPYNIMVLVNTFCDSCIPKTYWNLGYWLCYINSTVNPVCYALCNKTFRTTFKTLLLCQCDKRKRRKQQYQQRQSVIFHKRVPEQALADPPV
Nature of the data set: Electrophysiological recording in caudate/putamen of MPP+ lesioned macaques after CNO or DCZ. It is filed as in vivo. The procedure:
Intriguingly, many of the symptoms were greatly reversed after systemic deschloroclozapine (DCZ) administration. DCZ is a potent brain-penetrable agonist for rM3Ds with reduced off-targeting binding compared to CNO, and was administered to activate the DREADD system in the macaque brain.
Electrophysiological recording was performed through a recording chamber while the monkey was anesthetized. Neural responses were recorded by a 16-channel linear probe (Plexon Inc, Uprobe) driven by a mechanical microdrive (Alpha Omega, FlexMT). Signals were passed through a head stage (Plexon Inc, HST/16V-G20 LN) and then split and filtered between 300 Hz and 5 kHz to identify spiking activity with an amplifier system (Plexon Inc, OmniPlex). Detected spikes were then sorted by commercially available software (Plexon Inc, Offline Sorter) for further analysis. To quantify the effect of CNO/DCZ injection, neural activity was recorded for 60 minutes following CNO/DCZ injection. The response time-course for each channel was obtained by counting the spikes within every 10-minute window and then normalizing to the maximal.
To determine the effect of CNO/DCZ injection on the direction of signal change, we performed Pearson correlation between neural responses and time using the ‘corr’ function in Matlab, which generates the correlation coefficient ‘r’ and significant level ‘p’. A neuron was considered to have “Increased” activity when r>0 and p<[…]; and considered to have “Decreased” activity when r<0 and p<0.05. Otherwise, neurons were considered to be “Unchanged” in their neural activities. The responses of all increased neurons were then averaged after being normalized by the maximal response (Crowe et al., 2014; Dai and Wang, 2018; Hirokawa et al., 2019) following CNO/DCZ injection, and then plotted as a function of time to generate the normalized population response.

The nature of data set [5]: CSF concentration of DCZ by LC-MS. Conditions: 24 hours after drug infusion, 0.3 mg/kg i.m. It is filed as in vivo, macaques.
Source text: One month of washout was allowed before administration of DCZ.
Data set [6] relates to parkinsonian macaque model (MPP+). Conditions: clinical; cited from earlier work.
Setting [7] is: caudate/putamen, CNO 36 cells, DCZ 31 cells.

`CN1CCN(C2=Nc3ccccc3Nc3ccccc32)CC1` [DCZ, deschloroclozapine]: in data set [1] (DCZ treatment), the “motor skills (hand to mouth movement)” value is reported as “significant recovery of motor skills; also recorded: partially restored”, the “spontaneous movement/motor deficits in an observation cage” value is reported as “increase in spontaneous movement; also recorded: successfully rescue motor deficits” and the “tremor (EMG)” value is “great reduced or even eliminated; also recorded: removed”. Besides, the duration of effect entry in data set [1] (FIG. 18C) is listed as “over 24 hr”. In data set [1] (continuous DCZ), the “alleviation of parkinsonian symptoms over long-term treatment” value is on record as “consistent during an 8-month continuous treatment”. Besides, in data set [1] (initial phase of drug administration), the “speed of reversal of symptoms” value is given as “faster reversal of symptoms than levodopa; also recorded: faster than L-Dopa”. Also, in data set [1], the “dyskinesia-like behaviors (dyskinesia score)” value is listed as “dyskinesia-free; also recorded: did not elicit dyskinesia-like behaviors; also recorded: dyskinesia free”. Besides, the “alleviating symptoms after drug administration” value in data set [1] (single dose after steady-state efficacy) is “at least 24 hours”. For the same compound, the “motor-related behaviors in naïve monkeys” value in data set [2] is given as “did not alter motor-related behaviors; also recorded: doesn't alter motor-related behaviors”. Moreover, the “blood levels of common liver- and kidney-related factors” value in data set [3] is “remained stable”. For the same compound, the “neuronal activity in MPP+ lesioned macaques, in words” value in data set [4] (anesthetized animals) is “induced an increase in neuronal activity”. Also, in data set [4] (setting [7]), the “cells activated (FIG. 15G)” value is recorded as 41.9%, the “cells inactivated (FIG. 15G)” value stood at 9.7% and the “cells unchanged (FIG. 15G)” value is listed as 48.4%. For the same compound, the “DCZ level in cerebrospinal fluid” value in data set [5] is recorded as “no detectable levels”.
For `N[C@@H](Cc1ccc(O)c(O)c1)C(=O)O` [L-Dopa, levodopa], the “dyskinesia-like behaviors (dyskinesia score)” value in data set [1] was “evident; also recorded: pronounced”. Besides, the “effect of 4 months prior L-Dopa administration on DCZ treatment” value in data set [1] (one month washout) is “did not affect the efficacy of DCZ treatment or the absence of dyskinesia”. For the same compound, the standard efficacy window in data set [6] was 6 h.
